#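 Values below derive from 48-hour exposures of cells grown in 96-well plates, with endpoints linearly interpolated between the two concentrations bracketing the appropriate inhibition level. Here, GI50 denotes the concentration required for 50% inhibition of growth. TGI denotes the concentration required for complete inhibition of growth.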
# What was measured:
# Experiment in all cases: DTP human tumour cell line panel, 48 h
# 786-0 renal = tested on: 786-0 renal
# MCF7 breast = tested on: MCF7 breast
# ACHN renal = tested on: ACHN renal
# M14 melanoma = tested on: M14 melanoma
# IGROV1 ovarian = tested on: IGROV1 ovarian
# OVCAR-3 ovarian = tested on: OVCAR-3 ovarian
# OVCAR-8 ovarian = tested on: OVCAR-8 ovarian
# SK-MEL-28 melanoma = tested on: SK-MEL-28 melanoma
# T-47D breast = tested on: T-47D breast
# HCC-2998 colon = tested on: HCC-2998 colon
# HCT-15 colon = tested on: HCT-15 colon
# NCI-H226 lung = tested on: NCI-H226 lung
# COLO 205 colon = tested on: COLO 205 colon
# HL-60(TB) leukemia = tested on: HL-60(TB) leukemia
# CAKI-1 renal = tested on: CAKI-1 renal
# HOP-92 NSCLC = tested on: HOP-92 NSCLC
# HS 578T breast = tested on: HS 578T breast
# HT29 colon = tested on: HT29 colon
# SF-539 CNS = tested on: SF-539 CNS
# SW-620 colon = tested on: SW-620 colon
# SK-MEL-5 melanoma = tested on: SK-MEL-5 melanoma
# NCI-H460 lung = tested on: NCI-H460 lung
# HCT-116 colon = tested on: HCT-116 colon
# PC-3 prostate = tested on: PC-3 prostate
# K-562 leukemia = tested on: K-562 leukemia
# UO-31 renal = tested on: UO-31 renal
# TK-10 renal = tested on: TK-10 renal
# RPMI-8226 leukemia = tested on: RPMI-8226 leukemia
# SF-268 CNS = tested on: SF-268 CNS
# KM12 colon = tested on: KM12 colon
# SK-OV-3 ovarian = tested on: SK-OV-3 ovarian
# U251 CNS = tested on: U251 CNS
# OVCAR-4 ovarian = tested on: OVCAR-4 ovarian
# UACC-257 melanoma = tested on: UACC-257 melanoma
# DU-145 prostate = tested on: DU-145 prostate
# CCRF-CEM leukemia = tested on: CCRF-CEM leukemia
# MDA-MB-435 = tested on: MDA-MB-435
# A549 NSCLC = tested on: A549 NSCLC
# SNB-75 CNS = tested on: SNB-75 CNS
# LOX IMVI melanoma = tested on: LOX IMVI melanoma
# OVCAR-5 ovarian = tested on: OVCAR-5 ovarian
# SR leukemia = tested on: SR leukemia
# MOLT-4 leukemia = tested on: MOLT-4 leukemia
# SK-MEL-2 melanoma = tested on: SK-MEL-2 melanoma
# SF-295 CNS = tested on: SF-295 CNS
# A498 renal = tested on: A498 renal
# NCI-H23 lung = tested on: NCI-H23 lung
# NCI/ADR-RES ovarian = tested on: NCI/ADR-RES ovarian
# HOP-62 NSCLC = tested on: HOP-62 NSCLC
# MDA-MB-231 breast = tested on: MDA-MB-231 breast
# BT-549 breast = tested on: BT-549 breast
# UACC-62 melanoma = tested on: UACC-62 melanoma
# NCI-H522 lung = tested on: NCI-H522 lung
# SNB-19 CNS = tested on: SNB-19 CNS
# MALME-3M melanoma = tested on: MALME-3M melanoma
# RXF 393 renal = tested on: RXF 393 renal
# SN12C renal = tested on: SN12C renal
smiles,measurement,setting,value
C[C@]12CC[C@@H]3c4ccc(O)cc4CC[C@H]3[C@@H]1CC[C@@H]2NS(=O)(=O)c1cccc(OC(F)(F)F)c1,GI50,786-0 renal,1.92 µM
same,TGI,786-0 renal,3.93 µM
same,GI50,MCF7 breast,1.47 µM
same,TGI,MCF7 breast,3.36 µM
same,GI50,ACHN renal,2.45 µM
same,TGI,ACHN renal,6.7 µM
same,GI50,M14 melanoma,2.2 µM
same,TGI,M14 melanoma,4.89 µM
same,GI50,IGROV1 ovarian,3.44 µM
same,TGI,IGROV1 ovarian,9.19 µM
same,GI50,OVCAR-3 ovarian,2.04 µM
same,TGI,OVCAR-3 ovarian,3.99 µM
same,GI50,OVCAR-8 ovarian,2.78 µM
same,TGI,OVCAR-8 ovarian,9.06 µM
same,GI50,SK-MEL-28 melanoma,1.76 µM
same,TGI,SK-MEL-28 melanoma,3.23 µM
same,GI50,T-47D breast,2.14 µM
same,TGI,T-47D breast,5.18 µM
same,GI50,HCC-2998 colon,3.16 µM
same,TGI,HCC-2998 colon,9.37 µM
same,GI50,HCT-15 colon,1.65 µM
same,TGI,HCT-15 colon,3.76 µM
same,GI50,NCI-H226 lung,1.69 µM
same,TGI,NCI-H226 lung,3.29 µM
same,GI50,COLO 205 colon,1.86 µM
same,TGI,COLO 205 colon,3.3 µM
same,GI50,HL-60(TB) leukemia,2.18 µM
same,TGI,HL-60(TB) leukemia,7.04 µM
same,GI50,CAKI-1 renal,2.11 µM
same,TGI,CAKI-1 renal,5.97 µM
same,GI50,HOP-92 NSCLC,1.44 µM
same,TGI,HOP-92 NSCLC,3.95 µM
same,GI50,HS 578T breast,2.62 µM
same,TGI,HS 578T breast,10.5 µM
same,GI50,HT29 colon,2.14 µM
same,TGI,HT29 colon,3.94 µM
same,GI50,SF-539 CNS,1.69 µM
same,TGI,SF-539 CNS,3.09 µM
same,GI50,SW-620 colon,3.34 µM
same,TGI,SW-620 colon,12.6 µM
same,GI50,SK-MEL-5 melanoma,1.7 µM
same,TGI,SK-MEL-5 melanoma,3.32 µM
same,GI50,NCI-H460 lung,1.89 µM
same,TGI,NCI-H460 lung,3.71 µM
same,GI50,HCT-116 colon,1.84 µM
same,TGI,HCT-116 colon,3.53 µM
same,GI50,PC-3 prostate,2.13 µM
same,TGI,PC-3 prostate,8.18 µM
same,GI50,K-562 leukemia,3.35 µM
same,TGI,K-562 leukemia,10.8 µM
same,GI50,UO-31 renal,1.83 µM
same,TGI,UO-31 renal,5.46 µM
same,GI50,TK-10 renal,3.45 µM
same,TGI,TK-10 renal,10.1 µM
same,GI50,RPMI-8226 leukemia,2.38 µM
same,TGI,RPMI-8226 leukemia,6.4 µM
same,GI50,SF-268 CNS,3.18 µM
same,TGI,SF-268 CNS,13.6 µM
same,GI50,KM12 colon,2.01 µM
same,TGI,KM12 colon,4.08 µM
same,GI50,SK-OV-3 ovarian,3.1 µM
same,TGI,SK-OV-3 ovarian,7.68 µM
same,GI50,U251 CNS,2.54 µM
same,TGI,U251 CNS,6.94 µM
same,GI50,OVCAR-4 ovarian,1.85 µM
same,TGI,OVCAR-4 ovarian,4.69 µM
same,GI50,UACC-257 melanoma,2.16 µM
same,TGI,UACC-257 melanoma,6.5 µM
same,GI50,DU-145 prostate,3.83 µM
same,TGI,DU-145 prostate,12.1 µM
same,GI50,CCRF-CEM leukemia,3.16 µM
same,TGI,CCRF-CEM leukemia,12.3 µM
same,GI50,MDA-MB-435,1.64 µM
same,TGI,MDA-MB-435,3.02 µM
same,GI50,A549 NSCLC,2.7 µM
same,TGI,A549 NSCLC,8.24 µM
same,GI50,SNB-75 CNS,1.67 µM
same,TGI,SNB-75 CNS,4.32 µM
same,GI50,LOX IMVI melanoma,1.77 µM
same,TGI,LOX IMVI melanoma,3.17 µM
same,GI50,OVCAR-5 ovarian,1.73 µM
same,TGI,OVCAR-5 ovarian,3.2 µM
same,GI50,SR leukemia,3.37 µM
same,TGI,SR leukemia,9.92 µM
same,GI50,MOLT-4 leukemia,2.63 µM
same,TGI,MOLT-4 leukemia,12.1 µM
same,GI50,SK-MEL-2 melanoma,2.18 µM
same,TGI,SK-MEL-2 melanoma,4.39 µM
same,GI50,SF-295 CNS,1.58 µM
same,TGI,SF-295 CNS,3 µM
same,GI50,A498 renal,1.23 µM
same,TGI,A498 renal,2.79 µM
same,GI50,NCI-H23 lung,2.08 µM
same,TGI,NCI-H23 lung,4.87 µM
same,GI50,NCI/ADR-RES ovarian,2.59 µM
same,TGI,NCI/ADR-RES ovarian,7.7 µM
same,GI50,HOP-62 NSCLC,1.99 µM
same,TGI,HOP-62 NSCLC,3.59 µM
same,GI50,MDA-MB-231 breast,1.71 µM
same,TGI,MDA-MB-231 breast,3.86 µM
same,GI50,BT-549 breast,1.97 µM
same,TGI,BT-549 breast,3.66 µM
same,GI50,UACC-62 melanoma,2.04 µM
same,TGI,UACC-62 melanoma,4.7 µM
same,GI50,NCI-H522 lung,2.23 µM
same,TGI,NCI-H522 lung,5.42 µM
same,GI50,SNB-19 CNS,3.46 µM
same,TGI,SNB-19 CNS,16.1 µM
same,GI50,MALME-3M melanoma,1.99 µM
same,TGI,MALME-3M melanoma,4.67 µM
same,GI50,RXF 393 renal,1.64 µM
same,TGI,RXF 393 renal,3.6 µM
same,GI50,SN12C renal,1.65 µM
same,TGI,SN12C renal,3.26 µM
